Data: patent US7271158B2, “Treatment of rumen acidosis with α-amylase inhibitors” (Pfizer Inc., priority 2000, dated 2007)

Tests used:
strained rumen liquor = assay: In vitro rumen propionic acid screen; assay type: cell-based, Guernsey cow; details: control normalised as 100%; for Total VFA: 6 h incubation; for % Propionate: molar proportion of propionic acid in total VFA
Protocol: In Vitro Rumen Propionic Acid Screen Rumen Fluid: An eight year old dry Guernsey cow, fitted with a rumen fistula (Bar Diamond Inc. P.O. Box. 60. Bar Diamond Lane. Parma. Id. 83660-0060. […] This animal was used as a source of rumen contents, which were taken at 08:00 h (before the morning feed). The material was carried to the laboratory in a pre-warmed insulated flask, and then strained through four layers of cotton gauze into another pre-warmed bottle, which was stored in an incubator at 40° C. until the fluid was dispensed into the assay tubes. Substrate Mixture: • 68 g corn starch. Ex Sigma Cat. S-4126. • 17 g α-cellulose. Ex Sigma Cat. C-6429. • 15 g Type 1 soya flour. Ex Sigma Cat. S-9633. • Mix well. The assay was conducted in 16 ml Sorvall centrifuge tubes A tablet containing 100 mg of acarbose was placed in 10 ml of buffer and shaken until the tablet was completely disrupted, giving a 10 mg/ml solution of acarbose. […] Control tubes were prepared by replacing the acarbose solution with buffer. One ml of substrate suspension was added to all the assay tubes, followed by 3 ml of warmed degassed buffer and then by 5 ml of strained rumen liquor. Suba-Seal stoppers (No. 29) were fitted, and the head pressure in the tubes reduced by passing a hypodermic needle attached to a vacuum line through the stopper until the tube contents frothed. The tubes were then placed in a 40° C. incubator for 6 hours and shaken hourly. Pre-incubation VFA concentration were determined by preparing three tubes as for incubation but 1 ml metaphosphoric/crotonic acids solution was added immediately following the rumen liquor. These tubes were stored at 4° C. and processed with the post-incubation tubes. The incubation was terminated after 6 h by removing the stoppers and adding 1 ml of metaphosphoric/crotonic acids solution. The tubes were then centrifuged for 8 minutes at 18,000 g at 4° C., and an aliquot of the supernatant stored in an automatic liquid sampler vial until required for VFA analysis by gas chromatography. (as described in […] protocol) Production of total VFA and propionate during the incubation was determined as follows. Firstly, first the pre-incubation concentrations of total VFA and propionic acid were calculated as the mean of the analyses of the pre-incubation samples. Then for each incubated sample, post-minus pre-incubation concentration gave production during incubation. The molar proportion of propionic acid in total VFA.produced during the incubation was also calculated. The total VFA and % propionic acid values were meaned for the replicate tubes, and the mean control total VFA and % propionic acid values normalised as 100%, then the change caused by the test treatments expressed relative to this value.

[1] = test system: lactating cows in which chronic acidosis had been induced; assay: Efficacy of acarbose in lactating dairy cattle (induced chronic acidosis); assay type: in vivo, Holstein/Friesian cows
Description: Efficacy of Acarbose in Lactating Dairy Cattle The study measured the effect of acarbose on rumen pH, milk yield and milk composition in lactating cows in which chronic acidosis had been induced by offering a highly fermentable diet. The study included measurement of rate of adaptation to the introduction and removal of acarbose. Experimental animals were six lactating multiparous Holstein/Friesian cows between 5 and 11 years of age and 500-750 kg, with permanent rumen cannulas. The animals started the experiment in early lactation, but not before peak lactation, to allow greater experimental sensitivity. The principal measurements in this study were pH in the ventral sac of the rumen, milk yield and milk composition. DESIGN: Animals enrolled into the study received test article for 21 consecutive days from the start time points described below. [table] Masking/Bias-Reducing Methods: Six lactating multiparous Holstein/Friesian cows were enrolled on to the study on Day-1. Animals were paired based on their calving date (cows with similar dates paired together). Within each pair, one animal received […] and the other […]. The treatment was assigned at random. […] The mean intake over the last 5 days of the preliminary period was calculated and this mean amount was offered to each animal throughout the trial. […] Fresh weight of TMR offered and refused was recorded daily for each animal. During non-measurement weeks ([…] period and adaptation weeks 1 and 2 in each experimental period), dry matter (DM) of main forage components (grass and maize […] determined approximately weekly (or more frequently if it appears necessary from visual assessment of the silage). For measurement weeks (i.e. week 3 in each experimental period), the DM of the TMR were measured daily for the last 5 days while a bulk of each of the individual TMR components (grass silage, maize silage, concentrate mix, ground wheat) were prepared from the same 5 days for subsequent diet analysis (i.e. one sample of each main feed per period). […]

S. aureus = assay: Minimum inhibitory concentrations in aerobes (agar dilution)

CC1OC(OC2C(CO)OC(OC3C(CO)OC(O)C(O)C3O)C(O)C2O)C(O)C(O)C1NC1C=C(CO)C(O)C(O)C1O (centres unmarked) [Acarbose, acarbose]
Total VFA (strained rumen liquor; dose 0.32 μg/ml): 96%
% Propionate (strained rumen liquor; dose 0.32 μg/ml): 97%
Total VFA (strained rumen liquor; dose 1.6 μg/ml): 92%
% Propionate (strained rumen liquor; dose 1.6 μg/ml): 94%
Total VFA (strained rumen liquor; dose 8 μg/ml): 72%
% Propionate (strained rumen liquor; dose 8 μg/ml): 74%
Total VFA (strained rumen liquor; dose 40 μg/ml): 63%
% Propionate (strained rumen liquor; dose 40 μg/ml): 74%
Total VFA (strained rumen liquor; dose 200 μg/ml): 58%
% Propionate (strained rumen liquor; dose 200 μg/ml): 81%
Total VFA (strained rumen liquor; dose 1000 μg/ml): 50%
% Propionate (strained rumen liquor; dose 1000 μg/ml): 88%
proportion of fat in the milk ([1]; treated animals, acarbose 15 g per day (control 32.8 g/L)): 46.1 g/L
milk fat ([1]; treated animals, acarbose 15 g per day (control average 1033 grams per day)): 1281 grams per day
average time below pH 5.5 (rumen) ([1]; treatment periods, acarbose 15 g per day in feed supplement (control periods 4.3 hours)): 3.4 hours
MIC (S. aureus; S. aureus 3.4): >128 µg/mL
MIC (S. aureus; S. aureus 3.5): >128 µg/mL
MIC (S. aureus; S. aureus 5.1): >128 µg/mL
MIC (S. aureus; S. aureus 6.1): >128 µg/mL
MIC (S. aureus; S. aureus 8.2): >128 µg/mL
MIC (S. aureus; S. aureus 8.3): >128 µg/mL
MIC (S. aureus; S. aureus 9.3): >128 µg/mL
MIC (S. aureus; S. aureus 10.3): >128 µg/mL
MIC (S. aureus; S. aureus 10.4): >128 µg/mL
MIC (S. aureus; Staphylococcus aureus): > 128 µg/mL
MIC (S. aureus; Staphylococcus aureus, NCTC6571): > 128 µg/mL
